{"source": "paper doi:10.64898/2026.03.17.711623", "about": "“Polypharmacology is an enduring and nearly universal property of kinase inhibitors” (bioRxiv, 2026)", "target": "T1, YES (Homo sapiens, UniProt P07947)", "T1 construct": "gene YES1", "T1 sequence (P07947 whole entry)": "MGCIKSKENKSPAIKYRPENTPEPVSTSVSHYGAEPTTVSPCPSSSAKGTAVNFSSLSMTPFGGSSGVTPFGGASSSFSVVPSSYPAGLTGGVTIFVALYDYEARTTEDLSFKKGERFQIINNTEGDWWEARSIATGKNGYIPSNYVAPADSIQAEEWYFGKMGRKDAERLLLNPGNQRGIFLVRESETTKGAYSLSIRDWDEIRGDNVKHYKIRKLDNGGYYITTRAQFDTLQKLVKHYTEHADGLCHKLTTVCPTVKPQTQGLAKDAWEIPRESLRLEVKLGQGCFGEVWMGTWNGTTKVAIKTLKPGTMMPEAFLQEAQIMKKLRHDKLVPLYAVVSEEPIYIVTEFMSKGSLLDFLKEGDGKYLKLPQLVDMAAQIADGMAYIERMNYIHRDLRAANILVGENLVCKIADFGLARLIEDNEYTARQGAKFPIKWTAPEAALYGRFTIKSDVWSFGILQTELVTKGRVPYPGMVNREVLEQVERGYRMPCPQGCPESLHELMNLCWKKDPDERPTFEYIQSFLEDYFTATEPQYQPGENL", "data": [{"compound": "Cc1cc(C(=O)Nc2cc(Oc3ccc4nc(NC(=O)C5CC5)cn4n3)ccc2C)n(C)n1", "note": "[HMSL12071, TAK-593]", "values": [{"measurement": "Kd", "result": 423, "unit": "nM"}]}]}
